Patent US8692014B2, “Acid addition salts of 5-aminolevulinic acid or its derivatives” (Photocure ASA, priority 2004, dated 2014)
Blank lines part the entries; values can stand above or below the compound they belong to.

Key:
[1] = Hygroscopicity: water uptake and onset of deliquescence in closed chamber at 75-84% relative humidity; format: physicochemical; conditions: 75-84% relative humidity over saturated ammonium sulfate solution, ca. 25° C.; for appearance / deliquescence during the test period / water uptake as monitored by weight: in words
Protocol: (§1) Samples of methyl 5-amino-4-oxopentanoate hydrochloride, methanesulfonate, and toluenesulfonate were weighed and kept in 30 ml plastic cups in a closed chamber at 75-84% relative humidity over saturated ammonium sulfate solution at ambient temperature (ca. 25° C.). The samples were then weighed after different intervals of time to monitor water uptake. The appearance of the samples was also checked at the same time to determine the onset of deliquescence.
as §1, with “5-amino-4-oxopentanoic acid hydrochloride” for “methyl 5-amino-4-oxopentanoate hydrochloride, methanesulfonate,”, “75-84” for “75-84%”
as §1, with “hexyl” for “methyl”, “hydrochloride” for “hydrochloride, methanesulfonate,”

mouse skin [2] = experiment: Skin fluorescence after topical application of cream formulations to nude mice (emission 550-750 nm); format: in vivo, Female Balb/c athymic nude mice; conditions: in words; for initial fluorescence build-up compared with the hydrochloride salt / occurrence of maximum fluorescence compared with the hydrochloride salt / skin fluorescence compared to the hydrochloride salt: topical cream 0.5 mmol/10 g; for initial fluorescence build-up compared with the hydrochloride salt / occurrence of maximum fluorescence compared with the hydrochloride salt: FIG. 2; for skin fluorescence compared to the hydrochloride salt: FIG. 3 and FIG. 4
Protocol: Different salts of 5-amino-4-oxopentanoic acid or of its esters were formulated in Unguentum Merck for dermal studies. All cream formulations contained 0.5 mmol of substance per 10 g cream to ensure the same molar concentration (assuming that 10 g cream equals 10 ml, the approx. molar concentration is 0.5 mmol/10 ml or 50 mM). Preparation of the formulations is outlined in Table 1 below.
(§2) Method: Female Balb/c athymic nude mice, weighing about 22 g, obtained from the Department of Laboratory Animals, The Norwegian Radium Hospital, Oslo, Norway, were used in the study. Each group consisted of three mice.
(§3) Each mouse received 0.05-0.1 g of formulation (see Example 31) topically applied at the right flank of the body, evenly distributed and covered with a dressing (Opsite Flexigrid; Smith and Nephew Medical Ltd., Hull, England).
(§4) The fiber point measuring device used consisted of a bundle of optical fibers connected to a spectrofluorimeter which produced the excitation light of 407 nm. The excitation light, which is capable of penetrating 0.1-0.5 mm into the tissue, was led through half of the fibers to the mouse skin. The resulting emission fluorescence spectrum (550-750) nm was collected and led through the remaining fibers into a photomultiplier for quantification. The fluorescence spectrum from the skin was measured at 0, 2, 4, 6, 8, 10, 12 and 24 hours after administration and plotted against time.

mouse skin [3] = experiment: Skin fluorescence after topical application of cream formulations to nude mice, measured at 636 nm; format: in vivo, Female Balb/c athymic nude mice; conditions: topical cream 0.5 mmol/10 g, fluorescence at 636 nm, in words; for induction of skin fluorescence compared with the hydrochloride salt: FIG. 6 and FIG. 7; for occurrence of maximum fluorescence compared with the hydrochloride salt: FIG. 7
Source text: as §2, §3, §4
Different salts of 5-amino-4-oxopentanoic acid or of its benzylester were formulated in Unguentum Merck for dermal studies. All cream formulations contained 0.5 mmol substance per 10 g cream to assure the same molar concentration. Corrections were made in the case of the 2:1 salts so that the molar concentration of 5-amino-4-oxopentanoic acid or the corresponding ester corresponded to 0.5 mmol/10 g cream. Assuming that 10 g cream equals 10 ml, the approx. molar concentration is 0.5 mmol/10 ml=50 mM. Preparation of the formulations is outlined in Table 2 below.
Preparation of the Formulations is Described in Example 36. The same experimental system as in Example 32 was used, except that the skin fluorescence was measured at 636 nm rather than at 550-750 nm.
Preparation of the Formulations is Described in Example 36. The same experimental system as in Example 37 was used.

[4] = Hygroscopicity: 2 mg samples kept at ambient temperature at ambient or 100 humidity; format: physicochemical; conditions: for deliquescence on storage: ambient temperature and 100 humidity; for change of sample on storage: ambient temperature and ambient humidity for 4 days
Protocol: Samples (2 mg) of the hydrochloride, methanesulfonate, and toluenesulfonate of hexyl 5-amino-4-oxopentanoate were kept at ambient temperature and ambient humidity for 4 days.
Samples (2 mg) of the hydrochloride, methanesulfonate, and toluenesulfonate of hexyl 5-amino-4-oxopentanoate were kept at ambient temperature and 100 humidity.

Compound: 5-Amino-4-oxopentanoic acid toluenesulfonate
appearance / deliquescence during the test period [1]: did not change appearance during the test period | water uptake as monitored by weight [1]: did not pick up water

Compound: Cl.NCC(=O)CCC(=O)O [5-amino-4-oxopentanoic acid hydrochloride, reference compound]
onset of deliquescence [1]: 22.5 h | water uptake as monitored by weight [1]: took up water to a considerable extent

Compound: CS(=O)(=O)O.NCC(=O)CCC(=O)O [5-amino-4-oxopentanoic acid methanesulfonate]
maximal skin fluorescence compared with the HCl salt (mouse skin [2]; topical cream 0.5 mmol/10 g (Unguentum Merck), excitation 407 nm, emission 550-750 nm, 0-24 h, FIG. 1): somewhat higher maximal skin fluorescence than the HCl salt

Compound: CS(=O)(=O)O.NCC(=O)CCC(=O)OCc1ccccc1 [Benzyl 5-amino-4-oxopentanoate methanesulfonate]
initial fluorescence build-up compared with the hydrochloride salt (mouse skin [2]): occurred faster | occurrence of maximum fluorescence compared with the hydrochloride salt (mouse skin [2]): occurred faster

onset of deliquescence [1]: 22 h | water uptake as monitored by weight [1]: took up water to a considerable extent
Compound: COC(=O)CCC(=O)CN.CS(=O)(=O)O [Methyl 5-amino-4-oxopentanoate methanesulfonate]
skin fluorescence compared to the hydrochloride salt (mouse skin [2]; emission 550-750 nm): a considerable increase in skin fluorescence as compared to the hydrochloride salt

Compound: NCC(=O)CCC(=O)OCc1ccccc1.O=[N+]([O-])O [benzyl 5-amino-4-oxopentanoate nitrate, Benzyl 5-amino-4-oxopentanoate nitrate]
induction of skin fluorescence compared with the hydrochloride salt (mouse skin [3]): more effective in inducing skin fluorescence than the hydrochloride salt

Compound: NCC(=O)CCC(=O)OCc1ccccc1.O=P(O)(O)O [benzyl 5-amino-4-oxopentanoate phosphate, Benzyl 5-amino-4-oxopentanoate phosphate]
induction of skin fluorescence compared with the hydrochloride salt (mouse skin [3]): poorer inducers of skin fluorescence than the corresponding hydrochloride salt | occurrence of maximum fluorescence compared with the hydrochloride salt (mouse skin [3]): occurred earlier

onset of deliquescence [1]: 5.0 h | deliquescence on storage [4]: deliquesced after standing overnight | change of sample on storage [4]: No observable change
Compound: CCCCCCOC(=O)CCC(=O)CN.Cl [hexyl 5-amino-4-oxopentanoate hydrochloride, reference compound]
water uptake as monitored by weight [1]: did not pick up water to a considerable extent

appearance / deliquescence during the test period [1]: deliquescence did not occur | water uptake as monitored by weight [1]: took up water to some extent | deliquescence on storage [4]: deliquesced after two days | change of sample on storage [4]: No observable change
Compound: CCCCCCOC(=O)CCC(=O)CN.CS(=O)(=O)O [hexyl 5-amino-4-oxopentanoate methanesulfonate]
skin fluorescence compared to the hydrochloride salt (mouse skin [2]; emission 550-750 nm): approx. the same skin fluorescence as the hydrochloride salt

onset of deliquescence [1]: 22 h | water uptake as monitored by weight [1]: took up water to a considerable extent
Compound: COC(=O)CCC(=O)CN.Cl [methyl 5-amino-4-oxopentanoate hydrochloride, reference compound]

Compound: Benzyl 5-amino-4-oxopentanoate sulfate (2:1)
induction of skin fluorescence compared with the hydrochloride salt (mouse skin [3]): poorer inducers of skin fluorescence than the corresponding hydrochloride salt | occurrence of maximum fluorescence compared with the hydrochloride salt (mouse skin [3]): occurred earlier

Compound: Benzyl 5-amino-4-oxopentanoate toluenesulfonate
initial fluorescence build-up compared with the hydrochloride salt (mouse skin [2]): occurred faster | occurrence of maximum fluorescence compared with the hydrochloride salt (mouse skin [2]): occurred faster

Compound: Methyl 5-amino-4-oxopentanoate toluenesulfonate
appearance / deliquescence during the test period [1]: did not change appearance during the test period | water uptake as monitored by weight [1]: did not pick up water

Compound: hexyl 5-amino-4-oxopentanoate toluenesulfonate
skin fluorescence compared to the hydrochloride salt (mouse skin [2]; emission 550-750 nm): approx. the same skin fluorescence as the hydrochloride salt | appearance / deliquescence during the test period [1]: did not change appearance during the test period | water uptake as monitored by weight [1]: did not pick up water | deliquescence on storage [4]: deliquesced after four days | change of sample on storage [4]: No observable change
